Experimental data: patent publication US20210177880A1, “METHODS AND COMPOSITIONS FOR TREATING ACUTE MYELOID LEUKEMIA” (President and Fellows of Harvard College, priority 2017, published 2021)

Legend:
[1] = Tolerability of daily DON injections in mice carrying AML; assay type: in vivo, mouse; conditions: daily injections extended for more than 5 days
Experimental: (§1) To confirm that glutamine metabolism plays a functional role in protecting AML cells from chemotherapy, human AML cells (THP1) were treated in culture with iCT in combination with 6-diazo-5-oxo-L-norleucine (DON), a glutamine analog and antagonist that inhibits all glutamine-dependent enzymes (FIG. 5C). […] Mice carrying AML were then treated in combination with DON at different regimens (FIG. 5D).

MLL-AF9 AML cells = test: Survival of AML-bearing mice treated with iCT with or without DON; assay type: in vivo, mouse
Experimental: Arrows show the range where synergism occurs. […] FIG. 5C provides the chemical structure of glutamine and 6-diazo-5-oxo-L-norleucine (DON). FIGS. 5D-5E show survival of AML-bearing mice treated with iCT (days 7-11) with or without short term 6-diazo-5-oxo-L-norleucine (DON; 0.3 mg/kg), showing the treatment schedule (FIG. 5D) and Kaplan-Meier survival curves (FIG. 5E). iCT+DON: both given at same time; iCT+DON^+3: DON started 3 days after first dose of iCT. […]
To test this hypothesis, a mouse model was used in which cells express MLLAF9, driving leukemia development, luciferase, and GFP. The mouse model allows real-time monitoring of leukemic burden through bioluminescence imaging, and therefore identification of the moment of maximal response to iCT. Bone marrow cells derived from terminally ill primary mice were intravenously transplanted into secondary wildtype recipients, leading to the development of a very aggressive disease that can be monitored in real time since only AML cells express luciferase and GFP. Mice were treated with a chemotherapy regimen that closely mimics the one used in patients (cytarabine for 5 days and doxorubicin for the first 3 days) or vehicle, and followed disease progression using bioluminescence imaging (FIG. 6A). It was discovered that the amount of maximal response occurs 3-4 days after the last dose of chemotherapy (FIG. 6B). This means that at this moment, after the selection pressure of chemotherapy, massive neighboring cell death, and possibly other stress factors such as niche alteration, certain cells have adapted and are now started to grow again.
as §1

THP1 human AML cell line = test: Viability of human AML cells (THP1) treated in culture with iCT in combination with DON; assay type: cell-based; conditions: different doses of iCT (cytarabine+doxorubicin) in combination with DON, 72 h in vitro, FIG. 5A
Experimental: Arrows show the range where synergism occurs. […] FIG. 5C provides the chemical structure of glutamine and 6-diazo-5-oxo-L-norleucine (DON). FIGS. 5D-5E show survival of AML-bearing mice treated with iCT (days 7-11) with or without short term 6-diazo-5-oxo-L-norleucine (DON; 0.3 mg/kg), showing the treatment schedule (FIG. 5D) and Kaplan-Meier survival curves (FIG. 5E). iCT+DON: both given at same time; iCT+DON^+3: DON started 3 days after first dose of iCT. FIGS. 5F-5G show survival of AML-bearing mice treated with iCT (days 7-11) with or without continuous DON ([…]), showing the treatment schedule (FIG. 5F) and Kaplan-Meier survival curves (FIG. 5G). iCT+DON^post: DON started after last dose of iCT.
as §1

[N-]=[N+]=CC(=O)CC[C@H](N)C(=O)O [DON, 6-diazo-5-oxo-L-norleucine]
lethality of daily DON injections [1]: proved lethal | survival of AML-bearing mice, DON given together with iCT, versus iCT alone (MLL-AF9 AML cells; DON 0.3 mg/kg daily for 5 days at the same time as iCT (cytarabine 100 mg/kg 5 days + doxorubicin 3 mg/kg first 3 days), FIG. 5B/5E): did not extend survival | survival of AML-bearing mice, DON short treatment (MLL-AF9 AML cells; DON daily for 5 days at 0.3 mg/kg, FIG. 5B/5E): did not have much effect | interaction between iCT and DON treatment on survival (MLL-AF9 AML cells; DON every other day at 0.3 mg/kg, extended treatment after iCT, FIG. 5G): clear synergism | survival of AML-bearing mice, DON every other day after iCT, versus iCT alone (MLL-AF9 AML cells; DON every other day at 0.3 mg/kg, started after last dose of iCT (iCT+DONpost), p=0.0019, FIG. 5F/5G): increased substantially | survival of AML-bearing mice, DON delayed 3 days after first dose of iCT (MLL-AF9 AML cells; iCT+DON+3: short-term DON 0.3 mg/kg started 3 days after first dose of iCT, spanning the moment of maximal response, FIG. 5E): a clear survival benefit was achieved | interaction of iCT and DON on viability of THP1 cells (THP1 human AML cell line): synergy at several doses
